# According to patent publication US9409892B2, “4-hydroxy-isoquinoline compounds as HIF hydroxylase inhibitors” (FIBROGEN, INC., priority 2012, dated 2016):
# Experiments:
# PHD2 (EGLN1) = PHD2 (EGLN1) (Homo sapiens (Human), UniProt Q9GZT9); assay: HIF-PH assay (14CO2 capture), PHD2 enzyme inhibition; assay type: biochemical; conditions: Table 1; individual measurement; read-out: IC50 (μM) PHD2
# PHD1 (EGLN2) = PHD1 (EGLN2) (Homo sapiens (Human), UniProt Q96KS0); assay: HIF-PH assay (14CO2 capture), PHD1 enzyme inhibition; assay type: biochemical; conditions: Table 1; for IC50: individual measurement, read-out: IC50 (μM) PHD1; for PHD2/PHD1: ratio of the IC50 of the compound for each enzyme
# Chain of PHD1 (EGLN2) (Q96KS0 whole entry): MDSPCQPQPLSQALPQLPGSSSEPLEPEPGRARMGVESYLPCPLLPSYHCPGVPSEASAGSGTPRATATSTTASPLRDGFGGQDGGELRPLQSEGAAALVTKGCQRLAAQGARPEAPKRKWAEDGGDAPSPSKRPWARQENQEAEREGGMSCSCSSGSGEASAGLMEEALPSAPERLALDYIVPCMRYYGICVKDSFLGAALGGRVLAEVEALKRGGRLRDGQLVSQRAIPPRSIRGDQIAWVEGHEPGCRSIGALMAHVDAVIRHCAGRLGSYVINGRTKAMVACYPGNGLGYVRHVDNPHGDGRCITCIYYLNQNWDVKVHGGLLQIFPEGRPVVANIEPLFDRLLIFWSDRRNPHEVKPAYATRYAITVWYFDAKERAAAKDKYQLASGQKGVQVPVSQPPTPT
# Chain of PHD2 (EGLN1) (Q9GZT9 whole entry): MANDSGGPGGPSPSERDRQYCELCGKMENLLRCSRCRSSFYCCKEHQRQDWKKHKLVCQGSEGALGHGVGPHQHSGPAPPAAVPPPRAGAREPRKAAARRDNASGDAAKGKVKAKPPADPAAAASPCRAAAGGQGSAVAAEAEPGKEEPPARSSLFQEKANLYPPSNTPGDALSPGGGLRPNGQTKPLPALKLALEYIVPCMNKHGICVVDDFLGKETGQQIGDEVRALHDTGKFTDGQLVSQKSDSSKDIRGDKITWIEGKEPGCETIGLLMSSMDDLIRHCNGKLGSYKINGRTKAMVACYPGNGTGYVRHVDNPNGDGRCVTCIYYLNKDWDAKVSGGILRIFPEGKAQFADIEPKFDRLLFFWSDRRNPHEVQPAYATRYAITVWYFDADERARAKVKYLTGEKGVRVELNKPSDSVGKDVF
IC50 (PHD2 (EGLN1)) [µM],IC50 (PHD1 (EGLN2)) [µM],PHD2/PHD1 (PHD1 (EGLN2)),Structure (SMILES)
9.12,0.41,22,"CC(C)(CNC(=O)c1nc(C#N)c2cc(Oc3ccccc3)ccc2c1O)C(=O)O [Compound 77, 3-[(1-Cyano-4-hydroxy-7-phenoxy-isoquinoline-3-carbonyl)-amino]-2,2-dimethyl-propionic acid]"
200,11.8,17,"C[C@H](NC(=O)c1nc(C#N)c2cc(Oc3ccccc3)ccc2c1O)[C@@H](C)C(=O)O [Compound 72, (2R,3S)-3-[(1-Cyano-4-hydroxy-7-phenoxy-isoquinoline-3-carbonyl)-amino]-2-methyl-butyric acid]"
93.3,14.1,7,"N#Cc1nc(C(=O)N[C@H]2CC[C@H](C(=O)O)CC2)c(O)c2ccc(Oc3ccccc3)cc12 [Compound 88, trans-4-[(1-Cyano-4-hydroxy-7-phenoxy-isoquinoline-3-carbonyl)-amino]-cyclohexanecarboxylic acid]"
18.6,1.35,14,"CC(C)(CNC(=O)c1nc(C#N)c2cc(Cc3ccccc3)ccc2c1O)C(=O)O [Compound 164, 3-[(7-Benzyl-1-cyano-4-hydroxy-isoquinoline-3-carbonyl)-amino]-2,2-dimethyl-propionic acid]"
24.1,2.35,10,"CC(C)(CNC(=O)c1nc(C#N)c2cc(NC(=O)NCc3ccccc3)ccc2c1O)C(=O)O [Compound 162, 3-{[7-(3-Benzyl-ureido)-1-cyano-4-hydroxy-isoquinoline-3-carbonyl]-amino}-2,2-dimethyl-propionic acid]"
3.5,0.74,5,"CC(C)(CCCNC(=O)c1nc(C#N)c2cc(Oc3ccccc3)ccc2c1O)C(=O)O [Compound 95, 5-[(1-Cyano-4-hydroxy-7-phenoxy-isoquinoline-3-carbonyl)-amino]-2,2-dimethyl-pentanoic acid]"
11.9,1.81,7,"N#Cc1nc(C(=O)NCC(C(=O)O)c2ccccc2F)c(O)c2ccc(Oc3ccccc3)cc12 (stereo not drawn) [Compound 182, 3-[(1-Cyano-4-hydroxy-7-phenoxy-isoquinoline-3-carbonyl)-amino]-2-(2-fluoro-phenyl)-propionic acid]"
64.1,2.43,26,"C[C@@H](NC(=O)c1nc(C#N)c2cc(Oc3ccccc3)ccc2c1O)[C@@H](C)C(=O)O [Compound 69, (2R,3R)-3-[(1-Cyano-4-hydroxy-7-phenoxy-isoquinoline-3-carbonyl)-amino]-2-methyl-butyric acid]"
5.55,0.29,19,"CC(C)(CNC(=O)c1nc(C#N)c2cc(Oc3ccc(F)cc3Cl)ccc2c1O)C(=O)O [Compound 99, 3-{[7-(2-Chloro-4-fluoro-phenoxy)-1-cyano-4-hydroxy-isoquinoline-3-carbonyl]-amino}-2,2-dimethyl-propionic acid]"
96.8,3.27,30,"C[C@@H](CC(=O)O)NC(=O)c1nc(C#N)c2cc(Oc3ccccc3)ccc2c1O [Compound 78, 3-(S)-[(1-Cyano-4-hydroxy-7-phenoxy-isoquinoline-3-carbonyl)-amino]-butyric acid]"
86.6,13.5,6,"O=C(O)CCCCNC(=O)c1ncc2cc(Sc3ccccc3)ccc2c1O [Compound 114, 5-[(4-Hydroxy-7-phenylsulfanyl-isoquinoline-3-carbonyl)-amino]-pentanoic acid]"
200,12.4,16,"O=C(O)CCCNC(=O)c1ncc2cc(NC(=O)c3ccc(F)cc3)ccc2c1O [Compound 120, 4-{[7-(4-Fluoro-benzoylamino)-4-hydroxy-isoquinoline-3-carbonyl]-amino}-butyric acid]"
18.9,1.17,16,"N#Cc1nc(C(=O)N[C@H](Cc2ccccc2)[C@@H](O)C(=O)O)c(O)c2ccc(Oc3ccccc3)cc12 [Compound 75, (2R,3R)-3-(1-Cyano-4-hydroxy-7-phenoxyisoquinoline-3-carboxamido)-2-hydroxy-4-phenylbutanoic acid]"
1.9,0.11,18,"N#Cc1nc(C(=O)NCC2(C(=O)O)CCC2)c(O)c2ccc(Sc3ccccc3)cc12 [Compound 154, 1-{[(1-Cyano-4-hydroxy-7-phenylsulfanyl-isoquinoline-3-carbonyl)-amino]-methyl}-cyclobutanecarboxylic acid]"
200,29,7,"Cc1nc(C(=O)NCCC(=O)O)c(O)c2ccc(Oc3ccccc3)cc12 [Compound 108, 3-[(4-Hydroxy-1-methyl-7-phenoxy-isoquinoline-3-carbonyl)-amino]-propionic acid]"
19.5,3.3,6,"COc1ccc(Oc2ccc3c(O)c(C(=O)NCC(C)(C)C(=O)O)ncc3c2)cc1 [Compound 104, 3-{[4-Hydroxy-7-(4-methoxy-phenoxy)-isoquinoline-3-carbonyl]-amino}-2,2-dimethyl-propionic acid]"

IC50 (PHD2 (EGLN1)) [µM],IC50 (PHD1 (EGLN2)) [µM],PHD2/PHD1 (PHD1 (EGLN2)),Structure (SMILES)
158,11.3,14,"CC(C)(C)OC(=O)N1CCC(CC(=O)O)(NC(=O)c2nc(C#N)c3cc(Oc4ccccc4)ccc3c2O)CC1 [Compound 96, 4-Carboxymethyl-4-[(1-cyano-4-hydroxy-7-phenoxy-isoquinoline-3-carbonyl)-amino]-piperidine-1-carboxylic acid tert-butyl ester]"
5.43,0.7,8,"N#Cc1nc(C(=O)NCC2(C(=O)O)CCC2)c(O)c2ccc(Oc3c(F)cccc3F)cc12 [Compound 26, 1-({[1-Cyano-7-(2,6-difluoro-phenoxy)-4-hydroxy-isoquinoline-3-carbonyl]-amino}-methyl)-cyclobutanecarboxylic acid]"
200,25.4,8,"O=C(O)CCCCNC(=O)c1ncc2cc(Nc3ccccc3)ccc2c1O [Compound 124, 5-[(4-Hydroxy-7-phenylamino-isoquinoline-3-carbonyl)-amino]-pentanoic acid]"
12.6,1.38,9,"CC(CCC(=O)O)NC(=O)c1nc(C#N)c2cc(Oc3ccccc3)ccc2c1O (stereo not drawn) [Compound 184, 4-[(1-Cyano-4-hydroxy-7-phenoxy-isoquinoline-3-carbonyl)-amino]-pentanoic acid]"
24.5,2.88,9,"O=C(O)CCCNC(=O)c1ncc2cc(-c3ccc(F)cc3)ccc2c1O [Compound 148, 4-{[7-(4-Fluoro-phenyl)-4-hydroxy-isoquinoline-3-carbonyl]-amino}-butyric acid]"
200,23.7,8,"O=C(O)CCNC(=O)c1ncc2ccc(Oc3ccccc3)cc2c1O [Compound 112, 3-[(4-Hydroxy-6-phenoxy-isoquinoline-3-carbonyl)-amino]-propionic acid]"
27.6,2.38,12,"O=C(O)CCNC(=O)c1ncc2cc(-c3ccc(F)cc3)ccc2c1O [Compound 132, 3-{[7-(4-Fluoro-phenyl)-4-hydroxy-isoquinoline-3-carbonyl]-amino}-propionic acid]"
153,26.6,6,"O=C(NCC(C(=O)O)c1ccccc1)c1ncc2cc(Oc3ccccc3)ccc2c1O (stereo not drawn) [Compound 169, 3-[(4-Hydroxy-7-phenoxy-isoquinoline-3-carbonyl)-amino]-2-phenyl-propionic acid]"
28.1,1.51,19,"N#Cc1nc(C(=O)NC(CC(=O)O)c2cccc(Cl)c2)c(O)c2ccc(Oc3ccccc3)cc12 (stereo not drawn) [Compound 165, 3-(3-Chloro-phenyl)-3-[(1-cyano-4-hydroxy-7-phenoxy-isoquinoline-3-carbonyl)-amino]-propionic acid]"
51.9,2.51,21,"N#Cc1nc(C(=O)NC[C@H](N)C(=O)O)c(O)c2ccc(Oc3ccccc3)cc12 [Compound 86, 2-(S)-Amino-3-[(1-cyano-4-hydroxy-7-phenoxy-isoquinoline-3-carbonyl)-amino]-propionic acid]"
111,12.8,9,"Cn1nc(C(F)(F)F)cc1-c1nc(C(=O)NCC(C)(C)C(=O)O)c(O)c2ccc(Oc3ccccc3)cc12 [Compound 151, 3-{[4-Hydroxy-1-(2-methyl-5-trilluoromethyl-2H-pyrazol-3-yl)-7-phenoxy-isoquinoline-3-carbonyl]-amino}-2,2-dimethyl-propionic acid]"
27.5,3.56,8,"N#Cc1nc(C(=O)NC[C@H](NC(=O)OCc2ccccc2)C(=O)O)c(O)c2ccc(Oc3ccccc3)cc12 [Compound 87, 2-(S)-Benzyloxycarbonylamino-3-[(1-cyano-4-hydroxy-7-phenoxy-isoquinoline-3-carbonyl)-amino]-propionic acid]"
61.7,2.75,22,"O=C(O)CCCCNC(=O)c1ncc2cc(Oc3ccccc3)ccc2c1O [Compound 5, 5-[(4-Hydroxy-7-phenoxy-isoquinoline-3-carbonyl)-amino]-pentanoic acid]"
63.1,7.69,8,"CC(C)(CNC(=O)c1ncc2cc(Sc3ccccc3)ccc2c1O)C(=O)O [Compound 127, 3-[(4-Hydroxy-7-phenylsulfanyl-isoquinoline-3-carbonyl)-amino]-2,2-dimethyl-propionic acid]"
4.78,0.79,6,"COc1ccc(Oc2ccc3c(O)c(C(=O)NC[C@H](O)C(=O)O)ncc3c2)cc1 [Compound 103, 2-(S)-Hydroxy-3-{[4-hydroxy-7-(4-methoxy-phenoxy)-isoquinoline-3-carbonyl]-amino}-propionic acid]"
